Laboratory results from patent US20250215039A1, “NUCLEOSIDES FOR TREATING CANCER” (PRIMEFOUR THERAPEUTICS, INC., priority 2022, published 2025).
Where two headings read alike, the source gives them in different places.

Test system: cancer cell lines
Assay: Cancer cell proliferation activity (CellTiterGlo, 72 h)
Type: cell-based
Settings: 72 h, 72 h, read-out: IC50
Procedure, shortened: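 Readout is CellTiterGlo luminescence after 72 h compound exposure (0.1% DMSO final), started one day post-seeding, at 37 °C.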

CC[C@]1(CO)O[C@@H](n2cnc3c(N)nc(F)nc32)[C@H](O)[C@@H]1O [Cpd. No. 173, (2R,3S,4R,5R)-5-(6-amino-2-fluoro-9H-purin-9-yl)-2-ethyl-2-(hydroxymethyl)tetrahydrofuran-3,4-diol] gave an IC50 (5637 cell line (bladder)) of 220 nM, an IC50 (AS49 cell line (lung)) of 240 nM and an IC50 (CLS439 cell line (bladder)) of 610 nM. It also gave an IC50 (HS729 cell line (muscle)) of 210 nM, an IC50 (JAR cell line (placenta)) of 50 nM and an IC50 (Homo sapiens, 22Rv1, 72 h, 22RV1 cell line (prostate)) of 220 nM. For the same molecule, the IC50 (Homo sapiens, 786-0, 72 h, 786O cell line (kidney)) was 110 nM, the IC50 (Homo sapiens, A204, 72 h, A204 cell line (muscle)) was 70 nM and the IC50 (Homo sapiens, A673, 72 h, A673 cell line (bone)) was 570 nM. For the same molecule, the IC50 (Homo sapiens, A2780, 72 h, A2780 cell line (ovary)) was 200 nM, the IC50 (Homo sapiens, A-375, 72 h, A375 cell line (skin)) was 140 nM and the IC50 (Homo sapiens, A-431, 72 h, A431 cell line (skin)) was 70 nM. For the same molecule, the IC50 (Homo sapiens, ACHN, ACHN cell line (kidney)) was 280 nM, the IC50 (Homo sapiens, ASPC1, 72 h, ASPC1 cell line (pancreas)) was 50 nM and the IC50 (Homo sapiens, BT-20, 72 h, BT20 cell line (breast)) was 100 nM. For the same molecule, the IC50 (Homo sapiens, BXPC-3, 72 h, BXPC3 cell line (pancreas)) was 210 nM, the IC50 (Homo sapiens, C-33-A, C33A cell line (cervical)) was 190 nM and the IC50 (Homo sapiens, CAKI-1, 72 h, CAKI1 cell line (kidney)) was 10 nM. The IC50 (Homo sapiens, COLO 205, 72 h, COLO205 cell line (colon)) was 260 nM, the IC50 (Homo sapiens, COLO-678, 72 h, COLO678 cell line (colon)) was 390 nM and the IC50 (Homo sapiens, Ca-Ski, CASKI cell line (cervical)) was 60 nM. It also gave an IC50 (Homo sapiens, Caco-2, 72 h, CACO2 cell line (colon)) of 280 nM, an IC50 (Homo sapiens, Calu-6, 72 h, CALU6 cell line (lung)) of 60 nM and an IC50 (Homo sapiens, DLD-1, 72 h, DLD1 cell line (colon)) of 260 nM. The IC50 (Homo sapiens, DU-145, 72 h, DU145 cell line (prostate)) was 20 nM, the IC50 (Homo sapiens, EFO-21, 72 h, EFO21 cell line (ovary)) was 130 nM and the IC50 (Homo sapiens, EJ-28, 72 h, EJ28 cell line (bladder)) was 90 nM. For the same molecule, the IC50 (Homo sapiens, Granta-519, 72 h, GRANTA-519 cell line (hematological)) was 560 nM, the IC50 (Homo sapiens, HCT-15, 72 h, HCT15 cell line (colon)) was 300 nM and the IC50 (Homo sapiens, HCT-116, 72 h, HCT116 cell line (colon)) was 230 nM. It also gave an IC50 (Homo sapiens, HEK293, 72 h, HEK293 cell line (kidney)) of 140 nM, an IC50 (Homo sapiens, HL-60, 72 h, HL-60 cell line (hematological)) of 70 nM and an IC50 (Homo sapiens, HT-29, 72 h, HT29 cell line (colon)) of 160 nM. The IC50 (Homo sapiens, HT-1080, 72 h, HT1080 cell line (connective tissue)) was 720 nM, the IC50 (Homo sapiens, HeLa, HELA cell line (cervical)) was 110 nM and the IC50 (Homo sapiens, HepG2, 72 h, HEPG2 cell line (liver)) was 110 nM. For the same molecule, the IC50 (Homo sapiens, Hs-578T, HS578T cell line, breast) was 90 nM, the IC50 (Homo sapiens, IGROV-1, 72 h, IGROV1 cell line (ovary)) was 50 nM and the IC50 (Homo sapiens, IMR-90, 72 h, IMR90 cell line, lung) was 150 nM. It also gave an IC50 (Homo sapiens, J82, 72 h, J82 cell line (bladder)) of 150 nM, an IC50 (Homo sapiens, JEG-3, 72 h, JEG3 cell line (placenta)) of 40 nM and an IC50 (Homo sapiens, JIMT-1, 72 h, JIMT1 cell line (breast)) of 20 nM. For the same molecule, the IC50 (Homo sapiens, K562, 72 h, K-562 cell line (hematological)) was 500 nM, the IC50 (Homo sapiens, Kasumi 1, 72 h, KASUMI-1 cell line (hematological)) was 20 nM and the IC50 (Homo sapiens, L-363, 72 h, L-363 cell line (hematological)) was 40 nM. The IC50 (Homo sapiens, LoVo, LOVO cell line (colon)) was 40 nM, the IC50 (Homo sapiens, MCF7, 72 h, MCF7 cell line (breast)) was 2400 nM and the IC50 (Homo sapiens, MDA-MB-231, 72 h, MDAMB231 cell line (breast)) was 570 nM. The IC50 (Homo sapiens, MDA-MB-435, 72 h, MDAMB435 cell line (skin)) was 250 nM, the IC50 (Homo sapiens, MDA-MB-436, 72 h, MDAMB436 cell line (breast)) was 70 nM and the IC50 (Homo sapiens, MDA-MB-468, 72 h, MDAMB468 cell line (breast)) was 100 nM. The IC50 (Homo sapiens, MG-63, 72 h, MG63 cell line (bone)) was 2360 nM, the IC50 (Homo sapiens, MHH-ES-1, 72 h, MHHES1 cell line (bone)) was 120 nM and the IC50 (Homo sapiens, MIA PaCa-2, 72 h, MIAPACA2 cell line (pancreas)) was 2770 nM. For the same molecule, the IC50 (Homo sapiens, MINO, MINO cell line (hematological)) was 30 nM, the IC50 (Homo sapiens, MV4-11, 72 h, MV4-11 cell line (hematological)) was 30 nM and the IC50 (Homo sapiens, NCI-H23, 72 h, NCI-H23 cell line (lung)) was 70 nM. It also gave an IC50 (Homo sapiens, NCI-H82, 72 h, NCIH82 cell line (lung)) of 70 nM, an IC50 (Homo sapiens, NCI-H292, 72 h, NCIH292 cell line (lung)) of 470 nM and an IC50 (Homo sapiens, NCI-H460, 72 h, NCIH460 cell line (lung)) of 150 nM. For the same molecule, the IC50 (Homo sapiens, OVCAR-3, 72 h, OVCAR3 cell line (ovary)) was 80 nM, the IC50 (Homo sapiens, OVCAR-4, 72 h, OVCAR4 cell line (ovary)) was 130 nM and the IC50 (Homo sapiens, PANC-1, 72 h, PANC1 cell line (pancreas)) was 2820 nM. The IC50 (Homo sapiens, PC-3, 72 h, PC3 cell line (prostate)) was 130 nM, the IC50 (Homo sapiens, PLC-PRF-5, 72 h, PLCPRF5 cell line (liver)) was 630 nM and the IC50 (Homo sapiens, Panc1005, 72 h, PANC1005 cell line (pancreas)) was 130 nM. It also gave an IC50 (Homo sapiens, RD, RD cell line (muscle)) of 190 nM, an IC50 (Homo sapiens, Ramos, RAMOS cell line (hematological)) of 80 nM and an IC50 (Homo sapiens, SAOS-2, 72 h, SAOS2 cell line (bone)) of 100 nM. The IC50 (Homo sapiens, SF-268, 72 h, SF268 cell line (brain)) was 670 nM, the IC50 (Homo sapiens, SF-295, 72 h, SF295 cell line (brain)) was 440 nM and the IC50 (Homo sapiens, SK-BR-3, 72 h, SKBR3 cell line (breast)) was 10 nM. For the same molecule, the IC50 (Homo sapiens, SK-HEP1, 72 h, SKHEP1 cell line (liver)) was 190 nM, the IC50 (Homo sapiens, SK-LMS-1, 72 h, SKLMS1 cell line (uterus)) was 90 nM and the IC50 (Homo sapiens, SK-MEL-5, 72 h, SKMEL5 cell line, skin) was 420 nM. It also gave an IC50 (Homo sapiens, SK-MEL-28, 72 h, SKMEL28 cell line (skin)) of 150 nM, an IC50 (Homo sapiens, SK-N-AS, SKNAS cell line (brain)) of 160 nM and an IC50 (Homo sapiens, SK-N-SH, SKNSH cell line (brain)) of 140 nM. For the same molecule, the IC50 (Homo sapiens, SK-OV-3, 72 h, SKOV3 cell line (ovary)) was 100 nM, the IC50 (Homo sapiens, SNB-75, 72 h, SNB75 cell line (brain)) was 240 nM and the IC50 (Homo sapiens, SU-DHL10, 72 h, SU-DHL-10 cell line (hematological)) was 200 nM. For the same molecule, the IC50 (Homo sapiens, SU-DHL-6, 72 h, SU-DHL-6 cell line (hematological)) was 50 nM, the IC50 (Homo sapiens, SW-620, 72 h, SW620 cell line (colon)) was 90 nM and the IC50 (Homo sapiens, T-24, 72 h, T24 cell line (bladder)) was 140 nM. The IC50 (Homo sapiens, TE-671, 72 h, TE671 cell line (muscle)) was 620 nM, the IC50 (Homo sapiens, THP-1, 72 h, THP-1 cell line (hematological)) was 980 nM and the IC50 (Homo sapiens, U2OS, U2OS cell line (bone)) was 80 nM. The IC50 (Homo sapiens, U-87 MG, U87MG cell line (brain)) was 380 nM, the IC50 (Homo sapiens, UMUC3, 72 h, UMUC3 cell line (bladder)) was 460 nM and the IC50 (Homo sapiens, UO-31, 72 h, UO31 cell line (kidney)) was 50 nM. The IC50 (Homo sapiens, WSU-NHL, WSU-NHL cell line (hematological)) was 40 nM, the IC50 (MT-3, 72 h, MT3 cell line (breast)) was 100 nM and the IC50 (NCI-H358M, NCIH358M cell line (lung)) was 150 nM. The IC50 (PBMC, PBMC (hematological)) was > 50000 nM and the IC50 (RD-ES, RDES cell line (bone)) was 60 nM.
